Read-outs that look alike come from different tables or passages of the source.
Key:
[1] = system: HeLa S3 human cervix epithelioid carcinoma cells; assay: Toxicity to cultured HeLa S3 cells, number of viable cells; type: cell-based
Description: (§1) 2. Effects of orotate analogues on cell viability and the ability to synthesize nucleic acids from radioactive precursors, and the rescuing effects of normal pyrimidine bases or nucleosides or amino acid derivatives such as histidinol, can be tested in human-derived tissue culture cell lines. Human HT-1080 human sarcoma cells [Rusheed, S., et al., Cancer, 33:1027-30 (1974)], human diploid IMR-90 cells [Nichols, W. W., et al., Science, 196:60-3 (1977)], human cervical […] HeLa S3 cells [Puck, T. T., et al., J. Exp. Med., 103:273-84 (1956)], HL-60 human myeloid leukemia cells [Collins, S. J., et al., Nature, 270:347-9 (1977)], and mouse leukemia L-1210 cells [Moore, G. E., J. Nat. […] The growth medium most suitable for each cell line can be determined by reference to the publications cited above: briefly, HT-1080 cells are maintained in Eagle's Minimal Essential Medium (EMEM) supplemented with 5% fetal bovine serum (FBS) and 2 mM L-glutamine; IMR-90 cells are grown in EMEM supplemented with 10% FBS, 10 mM Hepes buffer, 0.21% NaHCO3, and 2 mM L-glutamine. […]
(§2) Toxicity of pyrimidine analogues to cultured human cells is determined as follows. […] Thereafter, the number of cells in each well is determined. […] Cells that grow in suspension (e.g., HL-60 and L-1210 cells) are transferred to centrifuge tubes, pelleted at low speed, washed, and the viability determined as above. […]

[2] = system: HL-60 human promyelocytic leukemia cells; assay: Toxicity to cultured HL-60 cells, number of viable cells; type: cell-based
Description: as §1, §2

[3] = system: Plasmodium falciparum, Sierra Leone clone; assay: Increase in parasitemia by light microscopy (Giemsa-stained smears), Sierra Leone clone; type: cell-based, P. falciparum; settings: Table 2, light microscopy
Description: Additionally, parasite-infected and treated erythrocytes can be smeared on microscope slides, stained with, e.g., Giemsa stain, and the ratio of infected to non-infected erythrocytes determined.
The chloroquine-sensitive Sierra Leone clone of P. falciparum was cultured in erythrocytes as in Example 1 above. In one method of determining the toxicity of 5-fluoro-orotate, [G-^3 H]-hypoxanthine uptake was used as an indicator of parasite proliferation, according to the procedure of Example 1 above. In a second method, the increase in parasitemia was determined directly by smearing infected erythrocytes on microscope slides, staining with Giemsa stain, and determining the ratio of infected to non-infected erythrocytes. In a third method, parasite-infected erythrocytes were incubated with [U-^14 C]-isoleucine (0.5 μCi; 0.33 Ci/mmol), and the amount of radioactivity incorporated into precipitable proteins determined.

[4] = system: mammalian cell lines; assay: Toxicity to a battery of mammalian cell lines; type: cell-based, human and mouse
Description: as §1, §2

O=C(O)c1[nH]c(=O)[nH]c(=O)c1F [5-fluoro-orotate]
IC50 ([1]; HeLa S3, with 1 mM uridine, read-out: IC50 With 1 mM Uridine): 3500 nM
IC50 ([1]; HeLa S3, without uridine, read-out: IC50 Without Uridine): 2000 nM
IC50 ([2]; HL-60, with 1 mM uridine, read-out: IC50 With 1 mM Uridine): 4500 nM
IC50 ([2]; HL-60, without uridine, read-out: IC50 Without Uridine): 900 nM
IC50 [3]: 2.5 nM
toxicity to rapidly dividing mammalian cells ([4]; 0.1 to 1 μM, in culture): not toxic to rapidly dividing mammalian cells in culture
IC50 ([4]; read-out: IC50 range over the mammalian cell lines): 900 to 10000 nM

Source: patent US6159953A, “Anti-malarial composition and method of use” (Catholic University of America, priority 1992, dated 2000)
